Assay results taken from paper PMC9861858, “Stereoselective Synthesis and Antiproliferative Activities of Tetrafunctional Diterpene Steviol Derivatives” (International Journal of Molecular Sciences, 2023).
Values after ≈ are worked out from the molar mass of the structure shown. “Also recorded” adds a separate entry of the source.

What was measured:
[1] = Kinetic aqueous solubility; type: physicochemical; conditions: phosphate buffered saline with 5% DMSO, aqueous with cosolvent or surfactant or cyclodextrin, kinetic from dmso stock; after 2 h, at 37 °C in PBS, pH 7.4, 5% DMSO; target concentration 500 μM; mean ± S.E.M, n = 3
Description: (§1) Filtrates and calibration solutions (5–500 μ M) of the kinetic solubility study and starting donor and acceptor solutions of the PAMPA-GI study were investigated by HPLC-DAD-MS. LC-MS analysis was performed using a Waters 2795 HPLC with a Waters 2487 DAD detector coupled with a Micromass Quattro Ultima TMPt quadrupol mass spectrometer equipped with an ESI source. Measurements were performed on a Waters XSelect C18 (150 × 4.6 mm; 3.5 μm) column with a […] eluent flow rate and the temperature set at 40 °C. The composition of eluent A was MilliQ water with 0.1% formic acid, and that of eluent B was an acetonitrile and MilliQ water mixture (95:5, v/v), also with 0.1% formic acid. The following linear gradient program was used: 0–6 min, 10–100% B; this was held for 3 min, then from 9.01 min on, back to the starting composition of 10% B–90% A. The injection volume was 10 μL for each sample. Chromatographic profiles were registered at dual wavelength, 220 and 240 nm. The mass spectrometer was used in negative ion mode for samples 2, 3 and 4b, and in positive ion mode for other samples. The operating parameters of the MS were: Mass range of m/z 150–700. Nitrogen gas flow rate was 350 L/h, temperature of 350 °C and pressure of 6 bar. The quadrupol temperature was 120 °C, and the capillary voltage was 2.5 kV. Fragmentor’s voltage of 60 V.
(§2) Intestinal (GI) permeability was determined by using an intestinal-specific parallel artificial membrane permeability assay (PAMPA-GI [36]]). […] All solutions were filtered by MultiScreen HTS Vacuum Manifold (Merck Ltd., Budapest, Hungary) after the incubation period. The target concentration was 500 μM for every sample investigated. The intestinal-specific effective permeability of the samples was determined by PAMPA-GI. To prepare starting solutions for a 96-well donor plate, 15 μLs of the 10 mM DMSO stock solution of investigation compounds and 285 μL pH 6.5 phosphate buffer solution were mixed. These solutions were left in a shaking incubator (300 rpm) at 25 °C for 1 h. Meanwhile, a 96-well acceptor plate was filled with 300 μL of pH 7.4 PBS buffer solution containing 5% DMSO. The intestinal-specific artificial membrane was prepared the following way: the hydrophobic filter material of the donor plate was coated with a mixture of phosphatidylcholine/cholesterol = 2:1 (5 μL, 4 % (w/v) in dodecane). After that, all donor wells were filled with 150 μL of the starting donor solutions, and they were carefully placed on the acceptor plate and incubated at 37 °C for 4 h. After the end of the incubation period the donor and acceptor plates were separated carefully. A total of 150 μL of the donor, acceptor and the starting donor solutions were sampled and analysed with HPLC-DAD-MS. The effective permeability and membrane retention of drugs were calculated using the following equations: Pe=−2.303/A·(t−τss)·1/1+rv·lg[−rv+(1+rv/1−MR)·]CD(t)/CD(0) MR=1−CD(t)/CD(0)−VA·CA(t)/VD·CD(0) where Pe is the effective permeability coefficient (cm/s), A is the filter area (0.3 cm^2), VD and VA are the volumes in the donor (0.15 cm^3) and acceptor phase (0.3 cm^3), t is the incubation time (s), τSS is the time to reach steady-state (s), CD(t) is the concentration of the compound in the donor phase at time point t (mol/cm^3), CD(0) is the concentration of the compound in the donor phase at time point zero (mol/cm^3), rv is the aqueous compartment volume ratio (VD/VA), MR is the membrane retention factor.

[2] = Intestinal-specific parallel artificial membrane permeability assay (PAMPA-GI); type: in vitro ADME; conditions: gradient pH system (pH donor 6.5 → pH acceptor 7.4) after 4 h, at 37 °C, mean ± S.E.M, n = 3; for Papp at 4 h, 500 µM: PAMPA, read-out: PAMPA-GI Pe
Description: as §1, §2

[3] = system: human cancer cell lines (HeLa, SiHa, A2780, MCF-7 and MDA-MB-231); experiment: MTT antiproliferative assay, whole cancer cell panel; type: cell-based; conditions: 10 and 30 μM
Description: (§3) The in vitro antiproliferative activities of the synthesised aminotriols 5–18 against a panel of different human cancer cell lines of gynecological origin, including cervical (SiHA and HeLa), breast (MCF7 and MDA-MB-231), ovary (A2780) cancers and NIH/3T3 healthy fibroblasts, were assayed by the MTT method. Cisplatin, a clinically applied anticancer agent was used as a reference compound, and the results are summarised in Figure 3 and Table S1 in the Supplementary Materials.
(§4) The growth-inhibitory effects of the presented terpenes were determined by a standard MTT [3-(4,5-dimethylthiazol2-yl)-2,5-diphenyltetrazolium bromide] assay against […] human cancer cell lines (cervical cancer HeLa and SiHa cell lines, breast cancer MCF-7 and MDA-MB-231 and ovarian cancer A2780). Murine embryonal fibroblast cells (NIH/3T3) were used to determine selectivity. All cell lines were purchased from the European Collection of Cell Cultures (Salisbury, UK). The cells were cultivated in Eagle’s minimal essential medium supplemented with 10% fetal bovine serum, 1% non-essential amino acids, and 1% Antibiotic-Antimycotic complex (penicillin, streptomycin, amphotericin B) at 37 °C in a humidified atmosphere containing 5% CO2. All media and supplements were purchased from Lonza Group Ltd. (Basel, Switzerland). Cancer cells were seeded into 96-well plates (5000 cells/well) after an overnight incubation, and the test compounds were added at two different concentrations (10 μM and 30 μM) and incubated for another 72 h under cell-culturing conditions. Finally, 20 μL of a 5 mg/mL MTT solution was added to each well, and the contents were incubated for a further 4 h. The medium was removed, and the precipitated formazan crystals were dissolved in DMSO by shaking at 37 °C for 60 min. The absorbance was measured at 545 nm by using a microplate reader (SPECTROStar Nano, BMG Labtech, Offenburg, Germany). Clinically utilised anticancer agent cisplatin (Ebewe GmbH, Unterach, Austria) was included as a reference molecule. Calculations were performed using the GraphPad Prism 9 software (GraphPad Software Inc., San Diego, CA, USA).

[4] = system: A2780 cells; experiment: MTT antiproliferative assay, A2780; type: cell-based, human; conditions: for inhibition at 10 µM / inhibition at 30 µM: Homo sapiens, 72 h, values <20% considered negligible, read-out: Growth inhibition (%) ± SEM, A2780; for inhibition at 10 µM: A2780, 10 μM; for inhibition at 30 µM: A2780, 30 μM
Description: as §3, §4

[5] = system: NIH/3T3 fibroblasts; experiment: MTT assay on fibroblasts (selectivity); type: cell-based, murine; conditions: Mus musculus, 72 h, values <20% considered negligible, read-out: Growth inhibition (%) ± SEM, NIH/3T3; for inhibition at 10 µM: NIH3T3, 10 μM; for inhibition at 30 µM: NIH3T3, 30 μM
Description: as §3, §4

[6] = system: SiHa cells; experiment: MTT antiproliferative assay, SiHa; type: cell-based, human; conditions: for inhibition at 10 µM / inhibition at 30 µM: Homo sapiens, SiHa, 72 h, values <20% considered negligible, read-out: Growth inhibition (%) ± SEM, SiHa
Description: as §3, §4

[7] = system: MDA-MB-231 cells; experiment: MTT antiproliferative assay, MDA-MB-231; type: cell-based, human; conditions: for inhibition at 10 µM / inhibition at 30 µM: Homo sapiens, 72 h, values <20% considered negligible, read-out: Growth inhibition (%) ± SEM, MDA-MB-231; for inhibition at 10 µM: MDA-MB-231, 10 μM; for inhibition at 30 µM: MDA-MB-231, 30 μM
Description: as §3, §4

[8] = system: HeLa cells; experiment: MTT antiproliferative assay, HeLa; type: cell-based, human; conditions: Homo sapiens, HeLa, 72 h, values <20% considered negligible, read-out: Growth inhibition (%) ± SEM, HeLa
Description: as §3, §4

[9] = system: MCF-7 cells; experiment: MTT antiproliferative assay, MCF-7; type: cell-based, human; conditions: for Antiproliferative effect / selectivity on MCF-7, in words: 10 and 30 μM; for inhibition at 10 µM / inhibition at 30 µM: Homo sapiens, 72 h, values <20% considered negligible, read-out: Growth inhibition (%) ± SEM, MCF-7; for inhibition at 10 µM: MCF7, 10 μM; for inhibition at 30 µM: MCF7, 30 μM
Description: as §3, §4

SMILES | solubility kinetic at 2 h [1] | Papp at 4 h, 500 µM [2] | PAMPA-GI MR (membrane retention) [2] | melting point | inhibition at 10 µM [4] | inhibition at 30 µM [4] | inhibition at 10 µM [5] | inhibition at 30 µM [5] | inhibition at 10 µM [6] | inhibition at 30 µM [6] | inhibition at 10 µM [7] | inhibition at 30 µM [7] | inhibition at 10 µM [8] | inhibition at 30 µM [8] | Antiproliferative effect / selectivity on MCF-7, in words [9] | inhibition at 10 µM [9] | inhibition at 30 µM [9] | other results
C=C1[C@H](O)[C@@]23CC[C@H]4[C@@](C)(CCC[C@@]4(C)C(=O)O)[C@@H]2CC[C@]1(O)C3 [Compound 2] | 443 ± 35.7 µM (≈ 148 µg/mL) | 0.52 ± 0.02 ×10⁻⁶ cm/s | 6.5 ± 0.7% | – | – | – | – | – | – | – | – | – | – | – | – | – | – | Antiproliferative activity on the cancer cell panel, in words [3]: any notable effect was not detectable
COC(=O)[C@]1(C)CCC[C@@]2(C)C3CC[C@]4(O)C[C@@]3(CCC21)[C@@H](O)[C@]41CN(Cc2ccccc2)CO1 (stereo partly drawn) [Compound 18, (4R,5’R,6aR,7R,9S,11bS)-Methyl 3’-Benzyl-7,9-dihydroxy-4,11b-dimethyldodecahydro-1H-spiro [6a,9-methanocyclohepta[a]naphthalene-8,5’-oxazolidine]-4-carboxylate] | 321 ± 88.5 µM (≈ 155 µg/mL) | – | 2.7 ± 0.4% | 123 to 125 °C | < 20% | 58.5 ± 3.18% | < 20% | < 20% | < 20% | 66.1 ± 2.45% | < 20% | 87.7 ± 0.91% | < 20% | 41.1 ± 1.95% | Selectivity for MCF-7 cells increased slightly | < 20% | 95.18 ± 0.35% | Antiproliferative effect on A2780, in words ([4]; 10 and 30 μM): moderate activity; Antiproliferative effect on SiHa, in words ([6]; 10 and 30 μM): moderate activity; Antiproliferative effect / selectivity on MDA-MB-231, in words ([7]; 10 and 30 μM): moderate activity; also recorded: smaller but also selective antiproliferative effect
COC(=O)[C@]1(C)CCC[C@@]2(C)C3CC[C@]4(O)C[C@@]3(CCC21)[C@@H](O)[C@]4(O)CN[C@@H](C)c1ccc2ccccc2c1 (stereo partly drawn) [Compound 13, (4R,6aR,7R,8R,9S,11bS)-Methyl 7,8,9-Trihydroxy-4,11b-dimethyl-8-((((S)-1-(naphthalen-2-yl)ethyl)amino)methyl)tetradecahydro-6a,9-methanocyclohepta[a]naphthalene-4-carboxylate] | 11.9 ± 1.8 µM (≈ 6.38 µg/mL) | – | 92.6 ± 1.1% | 81 to 83 °C | 96.64 ± 0.35% | 96.79 ± 0.2% | 72 ± 1.81% | 90.5 ± 1.31% | 93.8 ± 1.81% | 93.77 ± 0.41% | 93.33 ± 0.29% | 93.21 ± 0.46% | 94.5 ± 1.24% | 94.9 ± 1.29% | – | 95.74 ± 0.64% | 95.44 ± 0.85% | –
COC(=O)[C@]1(C)CCC[C@@]2(C)[C@@H]3CCC4(O)C[C@@]3(CC[C@@H]21)[C@@H](O)[C@]4(O)CN[C@H](C)c1ccc(F)cc1 [Compound 11, (4R,4aS,6aR,7R,8R,11aS,11bS)-Methyl 8-((((R)-1-(4-Fluorophenyl)ethyl)amino)methyl)-7,8,9-trihydroxy-4,11b-dimethyltetradecahydro-6a,9-methanocyclohepta[a]naphthalene-4-carboxylate] | 145 ± 14.1 µM (≈ 73.2 µg/mL) | 0.48 ± 0.05 ×10⁻⁶ cm/s | 22.4 ± 2.0% | 63 to 67 °C | 97.06 ± 0.3% | 97.51 ± 0.22% | 44.4 ± 0.7% | 90.5 ± 1.16% | 93.66 ± 0.85% | 94.59 ± 0.49% | 93.66 ± 0.59% | 94.31 ± 0.51% | 95.4 ± 1.08% | 95.8 ± 1.11% | – | 96.23 ± 0.59% | 96.27 ± 0.65% | –
COC(=O)[C@]1(C)CCC[C@@]2(C)C3CC[C@]4(O)C[C@@]3(CCC21)[C@@H](O)[C@]4(O)CNCc1ccc(OC)cc1 (stereo partly drawn) [Compound 10, (4R,6aR,7R,8R,9S,11bS)-Methyl 7,8,9-Trihydroxy-8-(((4-methoxybenzyl)amino)methyl)-4,11b-dimethyltetradecahydro-6a,9-methanocyclohepta[a]naphthalene-4-carboxylate] | 143 ± 26.8 µM (≈ 71.7 µg/mL) | 0.37 ± 0.11 ×10⁻⁶ cm/s | 6.1 ± 1.1% | 161 to 163 °C | < 20% | 96.79 ± 0.25% | < 20% | 90.9 ± 1.17% | 24.1 ± 1.39% | 94.64 ± 0.5% | 37.8 ± 2.27% | 93.42 ± 0.56% | 27.8 ± 1.05% | 96.06 ± 0.93% | higher selectivity; also recorded: performed best | 74.3 ± 2.62% | 95.66 ± 0.76% | –
